One series concerns cynomolgus monkey CYP1A2. The settings on record: cited from earlier work.
The test system of the next series is CYP2C19. The settings on record: cited from earlier work.
For the next series, the system named is CYP2C9. The conditions noted are these: cited from earlier work.
The test system of the next series is human serum albumin. The conditions noted are these: cited from earlier work.
The test system of the next series is SARS-CoV-2. The arrangement: method as in PMID 32703818. The settings on record: Calu-3 cells (airway epithelial cells) infected with SARS-CoV-2; cited from earlier work.
In a further series the test system is human CYP3A4. The settings on record: cited from earlier work.
The test system of a further series is CYP1A2. The conditions noted are these: cited from earlier work.
For a further series, the system named is rat primary hepatocytes. The series is described as follows: Depletion of inhibitors in rat primary hepatocyte suspension (LC-MS/MS), PK prediction. The series is classed as in vitro ADME. The settings on record: for Extraction Ratio EH / Classification / Predicted Cl CLH: rat; for Classification: 0.3 cut-off of E between low and intermediate extraction; for Predicted Cl CLH: fu = 1. As for the experimental part: (§1) Cryopreserved rat, dog and cynomolgus monkey primary hepatocytes were obtained from Primacyt (Primacyt, Schwerin, Germany). Hepatocytes were thawed using cryopreserved hepatocyte thawing medium (Primacyt, Schwerin, Germany), and cells were centrifuged (10 min, 100× g, 20 °C) to remove supernatants. The viability of hepatocytes was examined by the Trypan blue exclusion method, and it was confirmed that more than 90% of the cells were alive. Cell suspensions were then diluted with serum-free maintenance medium (Primacyt, Schwerin, Germany) after cell counting in Bürker chamber to the appropriate concentration (original concentration of the viable hepatocytes was 10^7 cells/mL).
(§2) Stock solutions of MI-463, MI-472, MI-485 and MI-1900 (10 mM) in dimethyl-sulfoxide were kept at −20 °C. Time courses of the unchanged amount of the inhibitors (in %) after incubation with hepatocytes were measured. Each compound was incubated in cell suspension (at the concentration of 5 × 10^5 cells/mL in 6-well plates) at constant and low-speed shaking at 37 °C in a humid atmosphere containing 5% CO2. […] Cells were incubated with serum-free maintenance medium either without or with each selected MI for 5 h. At various time points (0, 30, 60, 120, 180, and 300 min), the incubation mixtures were sampled (aliquots: 0.15 mL) and terminated by the addition of 0.1 mL ice-cold acetonitrile. The cell debris was separated by centrifugation, and the supernatants were analyzed by LC-MS/MS for quantitation of the remaining amount of the inhibitors.
(§3) For the LC-MS/MS investigations, 120 μL from the incubation mixture samples obtained as described above was removed and mixed with 315 μL chilled acetonitrile and 15 μL triphenylphosphate solution (TPP; 12000 ng/mL in acetonitrile) used as internal standard for the quantitation. After vortex mixing, the samples were centrifuged at 4 °C and 13300 RPM for 10 min. The supernatant was filtered through a PVDF syringe filter of 0.22 μm pore diameter, then transferred to chromatographic vials.
(§4) The LC-MS/MS instrument used for analyzing the MI compounds was a Shimadzu LCMS 8030+ system operated with an electrospray ion source (ESI) in positive multiple reaction monitoring (MRM) mode. A Phenomenex Kinetex C18 EVO 100 × 4.6 mm ID (2.6 µm particle size) column equipped with a 40 × 2 mm C18 guard column was used for the chromatographic separation. Gradient elution was used with eluents “A”: 50 mM ammonium acetate in water (pH 5 set by acetic acid) and “B”: 0.1 v/v% formic acid in acetonitrile. The flow rate was 0.4 mL/min, a chromatographic run took 8 min. The column oven was set to 30 °C, and the autoinjector’s temperature was at 6 °C. The injected volume was 10 µL. Other MS parameters were as follows: interface 4.5 kV; interface temperature 350 °C; desolvation line 300 °C; heat block 400 °C; detector 1.78 kV, nebulizing gas (N2) 3 liters/min, drying gas (N2) 15 liters/min; collision gas (Ar) 230 kPa.
(§5) The intrinsic clearance for hepatocytes (Clint) [mL (min 5 × 10^5 cells) ^−1] was calculated from the decrease in the concentration of MI compounds as follows: Clint = β=ln2/t1/2 [28] For scaling up, the Clint value to obtain Clint per whole liver (g)/bw(kg), the cell concentration in liver, the average liver weight and average body weight parameters were used (Table 1). The value for hepatic clearance (ClH) was calculated as follows: ClH=Clintliver/bw∗fu∗Qplasma/(Clintliver/bw∗fu)+Qplasma where the flow rate of Qplasma = QH* plasma/blood ratio. To calculate ClH, the hepatic flow rate, plasma/blood ratio (Table 1) and fu = 1 values were used. (QH is the hepatic blood flow, while fu is the unbound fraction of the compound.) The hepatic extraction ratio was defined as E = ClH/QH, and the bioavailability (%) was F = (1 − E) * 100 [28, 31, 32, 33].

Assay in series [1]: as above
The format is in vitro ADME. The conditions noted are these: cryopreserved primary hepatocytes in suspension; rat hepatocytes, 10 µM inhibitor, 5 × 10^5 cells/mL, 0-300 min, scaled to liver/bw. As for the experimental part: as §1, §2, §3, §4, §5

The target of another series is matriptase. The conditions noted are these: previous enzyme kinetic measurements, cited from earlier work.
A further series has as its target TMPRSS2. The conditions noted are these: competitive inhibition; previous enzyme kinetic measurements; cited from earlier work.
The test system of series [2] is cynomolgus monkey primary hepatocytes. The series is described as follows: Depletion of inhibitors in cynomolgus monkey primary hepatocyte suspension (LC-MS/MS), PK prediction. The series is classed as in vitro ADME. The conditions noted are these: for Depletion of parent compound (in words): cynomolgus monkey hepatocytes, 10 µM, 0-300 min; for Extraction Ratio EH / Classification / Predicted Cl CLH: macaque; for Classification: 0.3 cut-off of E between low and intermediate extraction; for Predicted Cl CLH: fu = 1. As for the experimental part:
as §1, §2, §3, §4, §5

Assay in series [3]: as above
The format is in vitro ADME. The conditions noted are these: cynomolgus monkey, cryopreserved primary hepatocytes in suspension; macaque hepatocytes, 10 µM inhibitor, 5 × 10^5 cells/mL, 0-300 min, scaled to liver/bw. As for the experimental part: as §1, §2, §3, §4, §5

For another series, the system named is dog primary hepatocytes. The series is described as follows: Depletion of inhibitors in dog primary hepatocyte suspension (LC-MS/MS), PK prediction. The series is classed as in vitro ADME. The settings on record: for Extraction Ratio EH / Classification / Predicted Cl CLH: dog; for Depletion of parent compound (in words): 10 µM; for Classification: 0.3 cut-off of E between low and intermediate extraction; for Predicted Cl CLH: fu = 1. As for the experimental part:
as §1, §2, §3, §4, §5

Assay in series [4]: as above
The settings on record: dog, cryopreserved primary hepatocytes in suspension, dog hepatocytes, 10 µM inhibitor, 5 × 10^5 cells/mL, 0-300 min, scaled to liver/bw. The format is in vitro ADME. As for the experimental part: as §1, §2, §3, §4, §5

For another series, the system named is H9N2 influenza virus. The settings on record: MDCK cells, matriptase-dependent; cited from earlier work.

Entries after “also recorded” stand apart in the source; their conditions may differ. Where two headings read alike, the source gives them in different places.

As for `N=C(N)c1cccc(C[C@H](NS(=O)(=O)c2cccc(-c3ccc(Cl)cc3Cl)c2)C(=O)N2CCC(CCN)CC2)c1.O=C(O)C(F)(F)F.O=C(O)C(F)(F)F` [MI-432], the “Modulation of cynomolgus monkey CYP1A2” value in the series with cynomolgus monkey CYP1A2 was “could modulate”. Also, the “Influence on CYP2C19 activity” value in the series with CYP2C19 is “did not influence the activity”. Also, in the series with CYP2C9, the “Influence on CYP2C9 activity” value is reported as “did not influence the activity”. Also, the “Binding to human serum albumin” value in the series with human serum albumin is given as “did not bind to human serum albumin to a great extent”. Moreover, in the series on SARS-CoV-2, the SARS-CoV-2 virus titer result was “could successfully lower viral titers; also recorded: effectively decrease SARS-CoV-2 virus titer”. Besides, in the series on human CYP3A4, the “Modulation of human CYP3A4 function” value was “could modulate”. Also, the “Influence on CYP1A2 activity” value in the series on CYP1A2 is reported as “did not influence the activity”.
As usually defined, the CLint scaled is the rate of metabolic loss divided by the concentration. For orientation: Ki means a measure of affinity in units of concentration, obtained from inhibition or displacement. `COc1ccc(-c2cccc(S(=O)(=O)N[C@@H](Cc3cccc(C(=N)N)c3)C(=O)N3CCC(NC(=O)NC4CCCCC4)CC3)c2)c(OC)c1` [MI-463]: the “Extraction Ratio EH” value with rat primary hepatocytes is given as 0.289; in series [2], 0.121; with dog primary hepatocytes it was 0.299. Further, the “Depletion of parent compound (in words)” value in the series on rat primary hepatocytes (rat hepatocytes, 10 µM, 0-300 min) is given as “elevated depletion rates”; in series [2], “elevated depletion rates”; with dog primary hepatocytes (dog hepatocytes, 0-300 min), “slowly decreased from 180 min; also recorded: pronounced stability against biotransformation”. The Classification result (in the series with rat primary hepatocytes; in [2]; with dog primary hepatocytes) was “Low-extraction drug” throughout. Moreover, the “Predicted Cl CLH” value with rat primary hepatocytes is reported as 15.97; in series [2], 5.27; with dog primary hepatocytes it was 9.25. In addition, the CLint scaled at 10 µM in [1] was 31.9 mL/min/kg; in series [3], 6.58 mL/min/kg; in series [4] it was 19.5 mL/min/kg. The Ki entry on matriptase is “very low, nanomolar”; on TMPRSS2 it was “very low, nanomolar”. In the series on cynomolgus monkey CYP1A2, the “Modulation of cynomolgus monkey CYP1A2” value is “could modulate”. Further, the “Influence on CYP2C19 activity” value in the series on CYP2C19 is “did not influence the activity”. In addition, the “Influence on CYP2C9 activity” value in the series with CYP2C9 is “did not influence the activity”. Further, in the series with human serum albumin, the “Binding to human serum albumin” value is “did not bind to human serum albumin to a great extent”. Besides, the “Modulation of human CYP3A4 function” value with human CYP3A4 is on record as “could modulate”. Further, in the series with CYP1A2, the “Influence on CYP1A2 activity” value was “did not influence the activity”.
For `COc1ccc(-c2cccc(S(=O)(=O)N[C@@H](Cc3cccc(C(=N)N)c3)C(=O)N3CCC(N)CC3)c2)c(OC)c1` [MI-472], the “Extraction Ratio EH” value is 0.305 in the series with rat primary hepatocytes, 0.190 in series [2] and 0.343 with dog primary hepatocytes. Moreover, the Classification result with rat primary hepatocytes is “Intermediate-extraction drug”; in [2], “Low-extraction drug”; in the series on dog primary hepatocytes, “Intermediate-extraction drug”. The figures for the “Predicted Cl CLH” value (with rat primary hepatocytes; in series [2]; with dog primary hepatocytes) were 16.85, 8.27 and 10.61, respectively. In addition, the figures for the intrinsic metabolic clearance (CLint scaled) at 10 µM in series [1], in [3] and in series [4] were 35.6 mL/min/kg, 12 mL/min/kg and 26.7 mL/min/kg, respectively. Further, in the series on dog primary hepatocytes (dog hepatocytes, 0-300 min), the “Depletion of parent compound (in words)” value is listed as “significantly depleted even at 30 min”.
In the case of `COc1ccc(-c2cccc(S(=O)(=O)N[C@@H](Cc3cccc(C(=N)N)c3)C(=O)N3CCC(NC(=O)NC(C)(C)C)CC3)c2)c(OC)c1` [MI-485], the “Extraction Ratio EH” value is listed as 0.314 in the series with rat primary hepatocytes, 0.183 in series [2] and 0.321 with dog primary hepatocytes. For the same compound, the results for the Classification result (with rat primary hepatocytes; in [2]; in the series with dog primary hepatocytes) were “Intermediate-extraction drug”, “Low-extraction drug” and “Intermediate-extraction drug”, respectively. Besides, the “Predicted Cl CLH” value was 17.33 in the series on rat primary hepatocytes, 7.98 in series [2] and 9.93 in the series with dog primary hepatocytes. The CLint scaled at 10 µM in series [1] was 37.8 mL/min/kg; in series [3] it was 11.4 mL/min/kg; in [4], 22.8 mL/min/kg. The Ki at matriptase (read-out: Ki) was below 5 nM. The “Inhibition of H9N2 influenza virus replication” value with H9N2 influenza virus is recorded as “showed inhibition”. In addition, the “Depletion of parent compound (in words)” value with dog primary hepatocytes (dog hepatocytes, 0-300 min) was “significantly depleted even at 30 min”.
As for `COc1ccc(-c2cccc(S(=O)(=O)N[C@@H](Cc3cccc(C(=N)N)c3)C(=O)N3CCN(C(=O)NC4CCCCC4)CC3)c2)c(OC)c1` [MI-1900], the “Extraction Ratio EH” value was 0.298 in the series on rat primary hepatocytes, 0.230 in series [2] and 0.212 in the series with dog primary hepatocytes. For the same compound, the Classification result (in the series with rat primary hepatocytes; in [2]; in the series with dog primary hepatocytes) was “Low-extraction drug” throughout. Moreover, the entries for the “Predicted Cl CLH” value (in the series with rat primary hepatocytes; in series [2]; in the series on dog primary hepatocytes) were 16.43, 10.03 and 6.56, respectively. Moreover, the CLint scaled at 10 µM is 33.8 mL/min/kg in [1], 16.1 mL/min/kg in [3] and 10.5 mL/min/kg in series [4]. In addition, the Ki result is on record as “very low, nanomolar” at matriptase and “very low, nanomolar” at TMPRSS2. Further, the “Modulation of cynomolgus monkey CYP1A2” value in the series on cynomolgus monkey CYP1A2 is “could modulate”. For the same compound, the “Influence on CYP2C19 activity” value with CYP2C19 was “did not influence the activity”. Moreover, the “Influence on CYP2C9 activity” value in the series with CYP2C9 is “did not influence the activity”. Also, the “Binding to human serum albumin” value in the series with human serum albumin was “did not bind to human serum albumin to a great extent”. In addition, the SARS-CoV-2 virus titer entry with SARS-CoV-2 was “could successfully lower viral titers; also recorded: effectively decrease SARS-CoV-2 virus titer”. The “Modulation of human CYP3A4 function” value with human CYP3A4 was “could modulate”. Besides, the “Depletion of parent compound (in words)” value is reported as “depleted at the highest speed; also recorded: rapidly; also recorded: depleted faster” in [2] and “significantly depleted even at 30 min” with dog primary hepatocytes (dog hepatocytes, 0-300 min). Further, the “Influence on CYP1A2 activity” value in the series with CYP1A2 is listed as “did not influence the activity”. For the same compound, the CLint scaled in the series on dog primary hepatocytes (dog hepatocytes, 10 µM inhibitor, 5 × 10^5 cells/mL, 0-300 min, scaled to liver/bw) is 10.5 mL/min/kg.
